Laboratory results from publication PMC7194015, “Proline-Rich Antimicrobial Peptides in Medicinal Maggots of Lucilia sericata Interact With Bacterial DnaK But Do Not Inhibit Protein Synthesis” (Frontiers in Pharmacology, 2020).
Ends that are not written are not given here.

Experiments:
[1] = target: T1, bacterial chaperone DnaK (Escherichia coli, UniProt P0A6Y8); assay: FRET assay, DnaK-binding (fluorescence quenching with DnaK-BHQ10); conditions: for maximum quenching effect: n = 3; for Kd: N-terminal 5(6)-carboxyfluorescein, C-terminal amide, quenching assay, non-linear regression (SlideWrite v7.01)
T1 construct: made in house
T1 sequence (P0A6Y8 whole entry): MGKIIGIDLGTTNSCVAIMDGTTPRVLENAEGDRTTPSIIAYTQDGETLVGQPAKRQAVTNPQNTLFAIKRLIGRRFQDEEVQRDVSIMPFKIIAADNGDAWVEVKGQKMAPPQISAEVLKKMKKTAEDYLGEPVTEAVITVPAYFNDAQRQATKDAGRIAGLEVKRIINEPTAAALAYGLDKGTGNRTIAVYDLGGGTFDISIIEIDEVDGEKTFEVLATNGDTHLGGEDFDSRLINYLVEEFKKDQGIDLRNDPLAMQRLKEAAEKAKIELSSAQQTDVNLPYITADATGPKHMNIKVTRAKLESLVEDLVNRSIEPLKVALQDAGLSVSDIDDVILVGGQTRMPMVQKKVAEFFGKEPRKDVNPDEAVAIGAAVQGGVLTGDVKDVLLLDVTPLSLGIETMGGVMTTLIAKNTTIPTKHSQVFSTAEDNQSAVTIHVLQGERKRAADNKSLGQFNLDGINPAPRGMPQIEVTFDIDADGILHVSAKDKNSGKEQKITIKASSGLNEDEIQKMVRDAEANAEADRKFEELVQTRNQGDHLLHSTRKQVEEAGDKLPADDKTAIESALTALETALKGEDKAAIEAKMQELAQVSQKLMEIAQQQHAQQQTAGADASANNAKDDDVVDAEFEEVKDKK
Protocol: Lser-stomoxyn, Lser-PRP2, and Lser-PRP3 were synthesized by PANATecs (Tübingen, Germany) at >95% purity with C-terminal amidation (Table 1). For the quenching assay, Lser-PRP2 and Lser-PRP3 were synthesized with N-terminal 5(6)-carboxyfluorescein and C-terminal amidation. DnaK was produced by Michael Zahn ([Knappe et al., 2011]). The Black Hole Quencher 10 succinimidyl ester (BHQ10-NHS ester, > 75% purity) was purchased from BioCat (Heidelberg, Germany).
DnaK (2 mg/ml) was dialyzed against the modifying buffer (20 mM Na2HPO4, 20 mM KH2PO4, 5 mM MgCl2, 150 mM KCl; pH 7.4) before labeling with a 10-fold molar excess of BHQ10-NHS ester ([Kreisig et al., 2011]; [Dobslaff et al., 2012]). Excess BHQ10 was removed by further dialysis and the final DnaK concentration was adjusted to […]. To evaluate the labeling efficiency, we measured BHQ10 absorption at 515 nm, and calculated the ratio of dye to protein (mean labeling degree, nine BHQ10 molecules per DnaK).
We mixed 50 μl of the fluorescein-modified peptides (1.3 nM) with 50 μl of a 1:4 serial dilution series of DnaK-BHQ10 in modification buffer (0.8–13,000 nM) in a solid black 384-well plate and incubated the plates for 2 h as previously described ([Dobslaff et al., 2012]). To calculate the quenching effect, control mixtures (50 μl of the peptide solution and 50 μl of the modification buffer) were recorded five times. We recorded the fluorescence intensity on a Paradigm fluorescence reader using a fluorescence (fluo-rhod) detection cartridge (excitation wavelength = 485 ± 10 nm, emission wavelength = 535 ± 12.5 nm, integration time = 140 ms). The quenching effect was expressed as the percentage of the fluorescence intensity of the control quenched after the addition of DnaK-BHQ10.
Dissociation constants (Kd) were determined using SlideWrite v7.01. The quenching effects were plotted against the DnaK concentration (logarithmic abscissa). Kd values were calculated by non-linear regression using the dose–response logistical transition function of the program [y = a 0 + a 1/(1 + x/a 2) a3].

[2] = system: panel of 114 multi-drug resistant clinical isolates; design: method as in Hirsch et al., 2019; conditions: ref Hirsch et al., 2019; cited from earlier work
[3] = system: E. coli JM83; assay: Atomic force microscopy of bacterial cell surface; assay type: cell-based; conditions: 90 min at 37°C
Protocol: Bacterial samples were prepared for atomic force microscopy (AFM) as previously described ([Zdybicka-Barabas et al., 2012]; [Zdybicka-Barabas et al., 2013]). Briefly, log-phase E. coli JM83 cells (OD600 = 0.2) in 100 µL lysogeny broth were incubated at 37°C for 90 min in the presence of individual or combined AMPs, or without AMPs as a negative control. We used concentrations of 50 μM Lser-PRP2, 50 μM Lser-PRP3, and 0.25 μM Lser-stomoxyn. The samples were centrifuged (8,000 × g, 4°C, 10 min), washed twice with apyrogenic water, resuspended in 5 μl apyrogenic water, applied to mica disks and allowed to dry at 28°C overnight.
The cell surface was imaged using a NanoScope V AFM (Veeco, Plainview, NY, USA) in Peak Force QNM operation mode and a silicon tip NSG 30 with a spring constant of 20 N/m (NT-MDT, Moscow, Russian Federation). The results were processed using Nanoscope Analysis v1.40 (Veeco). Three fields on each mica disk were imaged. The roughness values were measured over the entire bacterial cell surface in 3 × 3 µm areas. The average surface root mean square (RMS) roughness was calculated from 25 fields (300 × 300 nm). Section profiles and 3D images were produced using WSxM v5.0 ([Horcas et al., 2007]).

[4] = system: E. coli JM83 cells carrying plasmid pCH110; assay: Bacterial membrane permeabilization assay (β-galactosidase release); assay type: cell-based
Protocol: We tested the activity of the L. sericata AMPs against E. coli JM83, carrying plasmid pCH110 (Pharmacia-Amersham, Piscatway, NJ, USA).
Membrane permeabilization was quantified by measuring the activity of β-galactosidase released from E. coli JM83 cells carrying plasmid pCH110, which encodes a constitutive, cytoplasmic form of the enzyme ([Zdybicka-Barabas et al., 2013]). The peptides were pre-incubated for 15 min at 37°C in 23 μl 20 mM phosphate buffer (pH 6.8) before adding 2 μl of a suspension of mid-logarithmic phase E. coli cells (5 × 10^5 colony forming units, prepared in the same buffer). The final AMP concentrations were 0.0625–2 µM Lser-stomoxyn and up to 50 µM for the Lser-PRPs ([Pöppel et al., 2015]; [Hirsch et al., 2019]). After incubation for 45 min at 37°C, we added 220 μl 20 mM HEPES/150 mM NaCl (pH 7.5) and 5 μl 50 mM p-nitrophenyl-β-D-galactopyranoside. We incubated the samples at 37°C for a further 90 min and then measured the absorbance at 405 nm, which is proportional to the amount of released β-galactosidase. Live bacteria incubated in growth medium as well as dead bacteria after treatment with 5 µM synthetic cecropin B (Sigma-Aldrich) served as control samples. We set the perforation level of dead bacteria to 100%. All assays were performed six times in triplicate for each type of sample.

[5] = system: Gram-negative bacteria; conditions: ref Pöppel et al., 2015; Hirsch et al., 2019; cited from earlier work
Text: Several previous investigations have addressed the AMP repertoire of L. sericata. […] More recent studies have characterized the defensin-family AMP lucifensin ([Andersen et al., 2010]; [Čeřovský et al., 2010]; [Čeřovský et al., 2011]) and the antifungal AMP lucimycin ([P ...

[6] = Figure 2 legend, N-terminal 5(6)-carboxyfluorescein peptide, DnaK-BHQ10
[7] = N-terminal 5(6)-carboxyfluorescein peptide (1.3 nM) + DnaK-BHQ10 (0.8–13,000 nM), 2 h, 384-well, pH 7.4, sigmoidal curve

With “EWRPHGSIGGSGLRPGRPQTLPPQRPRRPDFNGPRHRF-NH2 [Lser-PRP2]” the maximum quenching effect [1, 6] was > 80%, the maximum quenching effect [1, 7] was 85–88% and the Kd [1] was 140 ± 10 nM.
With “SPFVDRPRRPIQHNGPKPRIITNPPFNPNARPAW-NH2 [Lser-PRP3]” the maximum quenching effect [1, 6] was > 80%, the maximum quenching effect [1, 7] was 85–88% and the Kd [1] was 300 ± 6 nM.
For “GFRKRFNKLVKKVKHTIKETANVSKDVAIVAGSGVAVGAAMG [Lser-Stomoxyn, Lucilia sericata canonical α-helical antimicrobial peptide, synthesized at >95% purity with C-terminal amidation]”, the “activity against clinical isolates” value [2] is listed as “showed activity against clinical isolates of E. coli, Enterobacter spp., Klebsiella spp., Salmonella enterica, Citrobacter freundii, and Acinetobacter spp., as well as multiple isolates of P. aeruginosa”, the Adhesion forces ([3]; 0.25 µM, mean ± SD of 25 fields, control 0.174 (± 0.04), ***p ≤ 0.001 vs control, letter a: differs from combination) is listed as 0.236 (± 0.079)^a*** nN and the Roughness ([3]; 0.25 µM, mean ± SD of 25 fields, control 0.843 (± 0.22), ***p ≤ 0.001 vs control, letter b: differs from combination) is listed as 1.102 (± 0.373)^b*** nm. The “Young's modulus” value ([3]; 0.25 µM, mean ± SD of 25 fields, control 2458 (± 24.52), **p ≤ 0.01 vs control) was 2601 (± 32.19)** MPa, the flagella ([3]; Lser-stomoxyn 0.25 µM alone) was “lost their flagella” and the “cell surface granularity vs controls” value ([3]; Lser-stomoxyn 0.25 µM or Lser-PRP2 50 µM alone) was “considerably more granular than that of the controls”. The bacterial membrane permeabilization ([4]; 0.25 µM, abstract) was 1%, the bacterial membrane permeabilization ([4]; 1 µM, 45 min at 37°C, bacteria killed by 5 µM cecropin B = 100%, n = 6) was 12% and the bacterial membrane permeabilization ([4]; 2 µM, 45 min at 37°C, bacteria killed by 5 µM cecropin B = 100%, n = 6) was 40%. For the same substance, the bacterial membrane permeabilization ([4]; 0.0625 or 0.125 µM, 45 min at 37°C, 20 mM phosphate pH 6.8, n = 6) was “little evidence of permeabilization”, the bacterial membrane permeabilization ([4]; 0.25–0.5 µM, 45 min at 37°C, bacteria killed by 5 µM cecropin B = 100%, n = 6) was 1–2% and the antibacterial activity [5] was “particularly active against Gram-negative bacteria”.
